Measurements reported in US5567692A, “9-[(substituted glycyl) amido)]-6-demethyl-6-deoxytetracyclines” (priority 1995, dated 1996).
Where a name gives a salt, the structure may show the parent alone. Read-outs that look alike come from different tables or passages of the source.

Columns and labels:
E. faecalis ATCC 29212 = experiment: MIC, agar dilution; type: cell-based; details: Enterococcus faecalis, ATCC29212, 18 h
E. coli J3272 Tet D = experiment: microbe, parasite or virus in culture; type: cell-based; details: Escherichia coli, J3272TETD, 18 h
[1] = system: S. aureus UBMS 88-5 Tet M; experiment: microbe, parasite or virus in culture; type: cell-based; details: Staphylococcus aureus, UBMS885TETM, 18 h
S. aureus IVES 1983 = experiment: MIC, agar dilution; type: cell-based; details: Staphylococcus aureus, IVES1983, 18 h
E. coli J3272 Tet sens = experiment: MIC, agar dilution; type: cell-based; details: Escherichia coli, J3272TETSENS, 18 h
Enterococcus 12201 = experiment: MIC, agar dilution; type: cell-based; details: Enterococcus, 12201, 18 h
[2] = system: E. coli UBMS 89-2 Tet sens.; experiment: MIC, agar dilution; type: cell-based; details: Escherichia coli, 18 h
E. coli UBMS 88-1 Tet B = experiment: microbe, parasite or virus in culture; type: cell-based; details: Escherichia coli, UBMS881TETB, 18 h
E. coli UBMS 89-1 Tet M = experiment: microbe, parasite or virus in culture; type: cell-based; details: Escherichia coli, UBMS891TETM, 18 h
E. coli J2175 = experiment: MIC, agar dilution; type: cell-based; details: Escherichia coli, 18 h, read-out: MIC
S. aureus UBMS 88-4 = experiment: MIC, agar dilution; type: cell-based; details: Staphylococcus aureus, UBMS884, 18 h, S. aureus UBMS 88-4
[3] = system: S. hemolyticus AVHAH 88-3; experiment: MIC, agar dilution; type: cell-based; details: Streptococcus pyogenes, AVHAH883, 18 h
[4] = system: Ps. aeruginosa ATCC 27853; experiment: MIC, agar dilution; type: cell-based; details: Pseudomonas aeruginosa, ATCC27853, 18 h, Ps. aeruginosa ATCC 27853; read-out: MIC
E. coli J3272 Tet C = experiment: microbe, parasite or virus in culture; type: cell-based; details: Escherichia coli, J3272TETC, 18 h
E. coli #311 (MP) = experiment: MIC, agar dilution; type: cell-based; details: Escherichia coli, 18 h
[5] = system: E. coli MC 4100 TNIOC Tet B; experiment: microbe, parasite or virus in culture; type: cell-based; details: Escherichia coli, 18 h
S. aureus ROSE (MP) = experiment: MIC, agar dilution; type: cell-based; details: Staphylococcus aureus, 18 h
S. aureus IVES 2943 = experiment: MIC, agar dilution; type: cell-based; details: Staphylococcus aureus, IVES2943, 18 h, S. aureus IVES 2943; read-out: MIC
E. coli PRP1 Tet A = experiment: microbe, parasite or virus in culture; type: cell-based; details: Escherichia coli, PRP1TETA, 18 h
S. marcescens FPOR 8733 = experiment: MIC, agar dilution; type: cell-based; details: Serratia marcescens, FPOR8733, 18 h
S. aureus SMITH (MP) = experiment: MIC, agar dilution; type: cell-based; details: Staphylococcus aureus, 18 h
E. coli BAJ9003 IMP MUT = experiment: microbe, parasite or virus in culture; type: cell-based; details: Escherichia coli, BAJ9003IMPMUT, 18 h
[6] = system: S. aureus UBMS 90-2 Tet M; experiment: microbe, parasite or virus in culture; type: cell-based; details: Staphylococcus aureus, UBMS902TETM, 18 h
[7] = system: X. maltophilia NEMC 87210; experiment: MIC, agar dilution; type: cell-based; details: Stenotrophomonas maltophilia, NEMC87210, 18 h
E. coli UBMS 90-5 = experiment: microbe, parasite or virus in culture; type: cell-based; details: Escherichia coli, UBMS905, 18 h, E. coli UBMS 90-5; read-out: MIC
E. coli ATCC 25922 = experiment: MIC, agar dilution; type: cell-based; details: Escherichia coli, ATCC25922, 18 h
E. coli UBMS 90-4 Tet M = experiment: microbe, parasite or virus in culture; type: cell-based; details: Escherichia coli, UBMS904TETM, 18 h
[8] = system: S. aureus UBMS 90-1 Tet M; experiment: microbe, parasite or virus in culture; type: cell-based; details: Staphylococcus aureus, UBMS901TETM, 18 h
[9] = system: Staphylococcus aureus strain Smith (tetracycline sensitive); experiment: Acute lethal infection in mice, S. aureus Smith; type: in vivo; details: for ED50: Staphylococcus aureus, 168 h, mice, S. aureus Smith (Sens), 7 day survival, read-out: ED50
S. aureus NEMC 8769 = experiment: MIC, agar dilution; type: cell-based; details: Staphylococcus aureus, NEMC8769, 18 h
S. aureus UBMS 90-3 = experiment: MIC, agar dilution; type: cell-based; details: Staphylococcus aureus, UBMS903, 18 h
S. aureus ATCC 29213 = experiment: MIC, agar dilution; type: cell-based; details: Staphylococcus aureus, ATCC29213, 18 h
[10] = system: S. aureus UBMS 88-7 Tet K; experiment: microbe, parasite or virus in culture; type: cell-based; details: Staphylococcus aureus, UBMS887TETK, 18 h

Structure (SMILES)	MIC (E. coli J3272 Tet D) [µg/mL]	MIC (E. coli J3272 Tet sens) [µg/mL]	MIC (Enterococcus 12201) [µg/mL]	MIC [2] [µg/mL]	MIC (E. coli UBMS 88-1 Tet B) [µg/mL]	MIC (E. coli UBMS 89-1 Tet M) [µg/mL]	MIC (E. coli J2175) [µg/mL]	MIC [3] [µg/mL]	MIC [4] [µg/mL]	MIC (E. coli J3272 Tet C) [µg/mL]	MIC (E. coli #311 (MP)) [µg/mL]	MIC [5] [µg/mL]	MIC (S. aureus IVES 2943) [µg/mL]	MIC (E. coli PRP1 Tet A) [µg/mL]	MIC (S. marcescens FPOR 8733) [µg/mL]	MIC (S. aureus SMITH (MP)) [µg/mL]	MIC (E. coli BAJ9003 IMP MUT) [µg/mL]	MIC [6] [µg/mL]	MIC (E. coli UBMS 90-5) [µg/mL]	MIC (E. coli ATCC 25922) [µg/mL]	further results
CCCCNCC(=O)Nc1ccc2c(c1O)C(=O)C1=C(O)[C@]3(O)C(=O)C(C(N)=O)=C(O)[C@@H](N(C)C)C3CC1C2 (stereo partly drawn) [H, [4S-(4alpha,12aalpha)]-9-[[(Butylamino)acetyl]amino]-4-(dimethylamino)-1,4,4a,5,5a,6,11,12a-octahydro-3,10,12,12a-tetrahydroxy-1,11-dioxo-2-naphthacenecarboxamide dihydrochloride]	0.06	0.12	0.12	0.12	0.25	0.12	0.25	0.5	8	0.12	0.12	0.25	1	0.25	2	0.12	0.06	0.12	0.12	0.12	MIC (E. faecalis ATCC 29212; E. faecalis ATCC 29212, read-out: MIC): 0.12 µg/mL; MIC ([1]; S. aureus UBMS 88-5 Tet M): 0.06 µg/mL; MIC (S. aureus IVES 1983): 2 µg/mL; MIC (S. aureus UBMS 88-4): 0.06 µg/mL; MIC (S. aureus ROSE (MP); read-out: MIC): 4 µg/mL; MIC [7]: 1 µg/mL; MIC (E. coli UBMS 90-4 Tet M): 0.12 µg/mL; MIC [8]: 0.12 µg/mL; ED50 ([9]; iv, Intraveneous): 0.5 to 1 mg/kg; ED50 ([9]; po, Oral): > 16 mg/kg; in vivo activity (in words) ([9]; tested intravenously against the minocycline sensitive organism S. aureus Smith): very good in vivo activity; MIC (S. aureus NEMC 8769): 0.03 µg/mL; MIC (S. aureus UBMS 90-3): 0.03 µg/mL; MIC (S. aureus ATCC 29213): 0.06 µg/mL; MIC [10]: 1 µg/mL
CC(Br)C(=O)Nc1ccc2c(c1O)C(=O)C1=C(O)[C@]3(O)C(=O)C(C(N)=O)=C(O)[C@@H](N(C)C)C3CC1C2 (stereo partly drawn) [S, [4S-(4alpha,12aalpha)]-9-[(2-Bromo-1-oxopropyl)amino]-4-(dimethylamino)-1,4,4a,5,5a,6,11,12a-octahydro-3,10,12,12a-tetrahydroxy-1,11-dioxo-2-naphthacenecarboxamide dihydrochloride]	> 32	4	32	16	> 32	> 32	16	8	> 32	> 32	8	> 32	32	> 32	> 32	1	1	16	8	8	MIC (E. faecalis ATCC 29212): 16 µg/mL; MIC [1]: 32 µg/mL; MIC (S. aureus IVES 1983; S. aureus IVES 1983, read-out: MIC): 32 µg/mL; MIC (S. aureus UBMS 88-4; read-out: MIC): 2 µg/mL; MIC (S. aureus ROSE (MP)): > 32 µg/mL; MIC ([7]; X. maltophilia NEMC 87210, read-out: MIC): 16 µg/mL; MIC (E. coli UBMS 90-4 Tet M): > 32 µg/mL; MIC [8]: 32 µg/mL; MIC (S. aureus NEMC 8769; read-out: MIC): 0.25 µg/mL; MIC (S. aureus UBMS 90-3; S. aureus UBMS 90-3, read-out: MIC): 2 µg/mL; MIC (S. aureus ATCC 29213; S. aureus ATCC 29213, read-out: MIC): 2 µg/mL; MIC [10]: 16 µg/mL
